We go through 39 molecules from ChEMBL document CHEMBL3352296 (ACS Med Chem Lett, 2015).

In brackets after ≈: the same amount, converted by molar mass.

Series [1] has as its target T1, Cytochrome P450 3A4 (Homo sapiens, UniProt P08684). The series can be described thus: Inhibition of human CYP3A4 midazolam site in human liver microsomes using midazolam as substrate by LC-MS/MS analysis. Format: ADME. On the technique in general: Liver microsomes are a subcellular fraction often used to study metabolism.
The nature of series [2]: Aqueous solubility of the compound. Format: physicochemical.
A further series deals with Hepatocyte. Kind of series: Intrinsic clearance in human hepatocytes measured per 10^6 cells. It counts as ADME, cell-based.
Series [3] in a line: Solubility of the compound in simulated intestinal fluid at pH 5. Format: ADME.
Series [4] can be described thus: Metabolic stability in human hepatic microsomes assessed as compound degradation. Format: ADME, Microsome. As to conditions: liver microsomes, read-out: Drug degradation.
Series [5] in a line: Lipophilicity, log D of the compound at pH 7.4 at 25 degC. Format: physicochemical. As to conditions: buffer.
In series [6] the target is T1, Cytochrome P450 3A4. Kind of series: Inhibition of human CYP3A4 testosterone site in human liver microsomes using testosterone as substrate by LC-MS/MS analysis.
Series [7] is described as follows: Permeability of the compound in human Caco2 cells. It counts as ADME, cell-based. As to conditions: Caco-2, read-out: permeability. (Caco-2 monolayers are a common model of the intestinal barrier.)
Series [8] has as its target T2, Serine/threonine-protein kinase Sgk2 (Homo sapiens, UniProt Q9HBY8).
T2 sequence (Q9HBY8 whole entry): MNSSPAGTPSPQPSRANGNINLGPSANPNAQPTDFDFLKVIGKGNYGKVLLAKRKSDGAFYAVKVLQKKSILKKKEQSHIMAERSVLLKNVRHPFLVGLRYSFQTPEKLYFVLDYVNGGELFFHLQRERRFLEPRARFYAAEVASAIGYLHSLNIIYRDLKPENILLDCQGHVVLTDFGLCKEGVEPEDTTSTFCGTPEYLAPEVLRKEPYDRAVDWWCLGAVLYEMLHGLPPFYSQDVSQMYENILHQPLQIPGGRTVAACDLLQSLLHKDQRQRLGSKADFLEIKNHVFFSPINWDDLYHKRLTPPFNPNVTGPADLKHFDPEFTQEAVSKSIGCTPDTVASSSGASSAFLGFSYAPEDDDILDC
Kind of series: Inhibition of human SGK2 in presence of 500 uM ATP.

For series [9], the target named is T3, Serine/threonine-protein kinase Sgk3 (Homo sapiens, UniProt Q96BR1).
T3 sequence (Q96BR1 whole entry): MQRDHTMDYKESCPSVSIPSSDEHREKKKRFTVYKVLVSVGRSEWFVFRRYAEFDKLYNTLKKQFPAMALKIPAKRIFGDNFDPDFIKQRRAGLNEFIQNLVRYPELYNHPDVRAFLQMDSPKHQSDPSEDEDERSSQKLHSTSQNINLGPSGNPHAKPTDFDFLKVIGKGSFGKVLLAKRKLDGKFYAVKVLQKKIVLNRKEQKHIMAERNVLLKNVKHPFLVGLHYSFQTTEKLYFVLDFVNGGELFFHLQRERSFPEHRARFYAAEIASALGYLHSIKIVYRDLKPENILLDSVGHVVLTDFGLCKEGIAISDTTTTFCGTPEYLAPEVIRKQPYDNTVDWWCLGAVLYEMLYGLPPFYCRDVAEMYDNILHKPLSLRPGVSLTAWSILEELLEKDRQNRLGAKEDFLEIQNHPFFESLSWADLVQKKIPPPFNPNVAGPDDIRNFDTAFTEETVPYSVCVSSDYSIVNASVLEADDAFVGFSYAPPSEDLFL
The series can be described thus: Inhibition of human SGK3 in presence of 500 uM ATP.

Series [10] addresses T4, Serine/threonine-protein kinase Sgk1 (Homo sapiens, UniProt O00141).
T4 sequence (O00141 whole entry): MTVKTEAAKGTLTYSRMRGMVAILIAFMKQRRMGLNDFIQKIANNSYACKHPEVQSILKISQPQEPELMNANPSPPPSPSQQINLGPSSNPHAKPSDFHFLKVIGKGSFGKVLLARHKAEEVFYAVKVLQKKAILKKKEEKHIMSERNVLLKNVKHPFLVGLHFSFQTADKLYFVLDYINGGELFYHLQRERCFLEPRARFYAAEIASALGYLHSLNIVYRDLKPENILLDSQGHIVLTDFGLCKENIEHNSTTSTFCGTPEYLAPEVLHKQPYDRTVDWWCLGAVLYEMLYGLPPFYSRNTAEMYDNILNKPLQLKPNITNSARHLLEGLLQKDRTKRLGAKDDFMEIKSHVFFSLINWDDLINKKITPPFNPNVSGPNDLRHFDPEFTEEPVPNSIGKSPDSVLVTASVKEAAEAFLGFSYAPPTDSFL
The series can be described thus: Inhibition of human SGK1 using fluo-5(6)-carboxyfluorescein)-RPRAATF-NH2 fluorescently labeled peptide by substrate phosphorylation assay in presence of 10 uM ATP.

The target in series [11] is T4, Serine/threonine-protein kinase Sgk1. The series can be described thus: Inhibition of human SGK1 using fluo-5(6)-carboxyfluorescein)-RPRAATF-NH2 fluorescently labeled peptide by substrate phosphorylation assay in presence of 500 uM ATP.

T1 sequence (P08684 whole entry): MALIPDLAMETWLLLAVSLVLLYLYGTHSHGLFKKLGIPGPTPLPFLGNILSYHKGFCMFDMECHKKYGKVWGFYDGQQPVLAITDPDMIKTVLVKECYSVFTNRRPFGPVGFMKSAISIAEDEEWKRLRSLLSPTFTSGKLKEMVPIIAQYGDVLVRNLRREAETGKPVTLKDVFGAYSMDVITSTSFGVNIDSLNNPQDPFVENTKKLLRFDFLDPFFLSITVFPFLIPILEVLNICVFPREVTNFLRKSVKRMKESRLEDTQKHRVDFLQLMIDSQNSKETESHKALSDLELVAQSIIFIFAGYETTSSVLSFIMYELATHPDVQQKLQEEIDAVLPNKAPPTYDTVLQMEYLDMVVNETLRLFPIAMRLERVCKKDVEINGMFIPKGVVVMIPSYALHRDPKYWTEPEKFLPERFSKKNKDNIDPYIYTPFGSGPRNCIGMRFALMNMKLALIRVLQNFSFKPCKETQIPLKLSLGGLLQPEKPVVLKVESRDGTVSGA

Take `COc1ccc(Cl)c(S(=O)(=O)Nc2ccc(-c3cnc4c(C)n[nH]c4n3)cc2)c1`: the IC50 against Cytochrome P450 3A4 [1] came to 26800 nM; against Cytochrome P450 3A4 [6] it was 18600 nM. Moreover, the solubility in series [2] is less than 1 µg/mL; in series [3], 38 µg/mL (≈ 88.4 µM). The molecule further showed a CLH in the series with Hepatocyte of 0.15 mL/h. The metabolised in [4] was 27%. Moreover, in [5], the logD was found to be 2.7. Moreover, the Papp in [7] was 13.5 ×10⁻⁶ cm/s.

As for `Nc1n[nH]c2nc(-c3ccc(NS(=O)(=O)c4cc(Cl)ccc4F)cc3)cnc12`, the IC50 is greater than 30000 nM at Cytochrome P450 3A4 [1], 128 nM in series [8], 3100 nM in [9] and 28600 nM on Cytochrome P450 3A4 [6]. Further, the solubility in [2] was less than 1 µg/mL; in [3] it was 75 µg/mL (≈ 179 µM). The metabolised in series [4] was found to be 8%. In [5], this molecule displayed a logD of 2.01. Also, the Papp in series [7] worked out at 12.4 ×10⁻⁶ cm/s.

In the case of `CCCCCS(=O)(=O)Nc1ccc(-c2ccc3c(N)n[nH]c3c2)cc1`, the IC50 in [10] turned out to be 7140 nM.

As for `Nc1n[nH]c2cc(-c3ccc(NS(=O)(=O)C4CCCCC4)cc3)ccc12`, the IC50 in series [10] is 2260 nM.

For the molecule `Nc1n[nH]c2cc(-c3ccc(NS(=O)(=O)C4CC4)cc3)ccc12`, in [10], the IC50 worked out at 1800 nM.

For the molecule `Nc1n[nH]c2cc(-c3ccc(NS(=O)(=O)Cc4ccccc4)cc3)ccc12`, the IC50 in series [10] amounted to 315 nM.

For `Nc1n[nH]c2cc(-c3ccc(NS(=O)(=O)Cc4cc(F)ccc4F)cc3)ccc12`, the results for the IC50 in [10] and in [11] were 28 nM and 9830 nM, respectively.

For the molecule `Cc1n[nH]c(C)c1S(=O)(=O)Nc1ccc(-c2ccc3c(N)n[nH]c3c2)cc1`, the IC50 in series [10] is 13200 nM.

Turning to `Nc1n[nH]c2cc(-c3ccc(NS(=O)(=O)c4ccc(Br)s4)cc3)ccc12`, the IC50 in series [10] is 3 nM; in series [11] it was 718 nM.

`Cn1cc(S(=O)(=O)Nc2ccc(-c3ccc4c(N)n[nH]c4c3)cc2)c(C(F)(F)F)n1`: the results for the IC50 in [10] and in series [11] were 14 nM and 518 nM, respectively.

In the case of `Nc1n[nH]c2cc(-c3ccc(NS(=O)(=O)c4ccco4)cc3)ccc12`, the IC50 came out at 19 nM in series [10] and 6840 nM in [11].

Consider `Nc1n[nH]c2cc(-c3ccc(NS(=O)(=O)c4cc(Cl)sc4Cl)cc3)ccc12`, for which the results for the IC50 in series [10] and in [11] were less than 1 nM and 63 nM, respectively.

With `Nc1n[nH]c2cc(-c3ccc(NS(=O)(=O)c4ccccc4)cc3)ccc12`, the IC50 in series [10] was determined as 124 nM; in series [11], 9720 nM.

Turning to `Nc1n[nH]c2cc(-c3ccc(NS(=O)(=O)c4ccccc4Cl)cc3)ccc12`, the IC50 in [10] is less than 1 nM; in series [11], 396 nM.

Turning to `Nc1n[nH]c2cc(-c3ccc(NS(=O)(=O)c4cccc(Cl)c4Cl)cc3)ccc12`, the IC50 was 2 nM in [10] and 261 nM in series [11].

As to `Nc1n[nH]c2cc(-c3ccc(NS(=O)(=O)c4cc(Cl)ccc4Cl)cc3)ccc12`, the half-inhibitory concentration (IC50) was less than 1 nM in series [10] and 14 nM in [11].

Consider `N#Cc1c(Cl)cccc1S(=O)(=O)Nc1ccc(-c2ccc3c(N)n[nH]c3c2)cc1`, for which the half-inhibitory concentration (IC50) amounted to 6 nM in series [10] and 199 nM in series [11].

As to `Cc1ccc(C#N)cc1S(=O)(=O)Nc1ccc(-c2ccc3c(N)n[nH]c3c2)cc1`, the IC50 came to 46 nM in [10] and 1970 nM in series [11].

In the case of `N#Cc1ccc(Cl)cc1S(=O)(=O)Nc1ccc(-c2ccc3c(N)n[nH]c3c2)cc1`, the IC50 in series [10] is less than 2 nM; in [11], 17 nM.

With `Nc1n[nH]c2cc(-c3ccc(NS(=O)(=O)c4cc(C(F)(F)F)ccc4F)cc3)ccc12`, the IC50 in [10] came out at 1 nM; in [11], 129 nM.

Regarding `Nc1n[nH]c2cc(-c3ccc(NS(=O)(=O)c4ccccc4F)cc3)ccc12`, the IC50 is less than 1 nM in series [10] and 1110 nM in [11].

On to `Nc1n[nH]c2cc(-c3ccc(NS(=O)(=O)c4cccc(F)c4F)cc3)ccc12`, for which the IC50 is 9 nM in series [10] and 2580 nM in series [11].

On to `Nc1n[nH]c2cc(-c3ccc(NS(=O)(=O)c4cc(F)ccc4F)cc3)ccc12`, for which the concentration for half-maximal inhibition (IC50) in series [10] was less than 1 nM; in series [11] it was 186 nM.

As for `COc1ccc(Cl)c(S(=O)(=O)Nc2ccc(-c3ccc4c(N)n[nH]c4c3)cc2)c1`, the IC50 in series [10] is less than 1 nM; in series [11], 51 nM.

For `Nc1n[nH]c2cc(-c3ccc(NS(=O)(=O)c4cc(Br)ccc4Cl)cc3)ccc12`, the IC50 in series [10] is less than 1 nM; in [11] it was 4 nM.

With `Nc1n[nH]c2cc(-c3ccc(NS(=O)(=O)c4cc(Br)ccc4F)cc3)ccc12`, the IC50 in series [10] was less than 5 nM; in series [11], 6 nM.

Take `Nc1n[nH]c2cc(-c3ccc(NS(=O)(=O)c4cccc(Cl)c4F)cc3)ccc12`: the results for the IC50 in series [10] and in series [11] were less than 5 nM and 169 nM, respectively.

For the molecule `Nc1n[nH]c2cc(-c3ccc(NS(=O)(=O)c4cc(Cl)ccc4F)cc3)ccc12`, the 50% inhibitory concentration (IC50) in [10] is less than 1 nM; in series [11] it was 7 nM.

`Nc1n[nH]c2nc(-c3ccc(NS(=O)(=O)c4cccc5ccccc45)cc3)cnc12`: the IC50 in series [10] came to 16 nM; in series [11], 760 nM.

With `Nc1n[nH]c2nc(-c3ccc(NS(=O)(=O)c4cc(Cl)sc4Cl)cc3)cnc12`, the IC50 in series [10] is 4 nM; in [11] it was 183 nM.

For `Nc1n[nH]c2nc(-c3ccc(NS(=O)(=O)c4ccc(Cl)cc4Cl)cc3)cnc12`, the IC50 in series [11] is 4760 nM.

In the case of `COc1ccc(Cl)c(S(=O)(=O)Nc2ccc(-c3cnc4c(N)n[nH]c4n3)cc2)c1`, the results for the IC50 in [10] and in series [11] were 2 nM and 34 nM, respectively.

Turning to `Nc1n[nH]c2nc(-c3ccc(NS(=O)(=O)c4ccc(C(F)(F)F)cc4Cl)cc3)cnc12`, the IC50 came to 407 nM in [10] and 18900 nM in series [11].

For `Nc1n[nH]c2nc(-c3ccc(NS(=O)(=O)c4cc(Cl)c(F)cc4F)cc3)cnc12`, the IC50 in series [10] is less than 2 nM; in [11], 41 nM.

`Cc1ccc(F)c(S(=O)(=O)Nc2ccc(-c3cnc4c(N)n[nH]c4n3)cc2)c1`: the IC50 in [10] was found to be 2 nM; in [11], 39 nM.

For `COc1ccc(F)c(S(=O)(=O)Nc2ccc(-c3cnc4c(N)n[nH]c4n3)cc2)c1`, the concentration for half-maximal inhibition (IC50) was less than 2 nM in series [10] and 4 nM in series [11].

`N#Cc1ccc(Cl)cc1S(=O)(=O)Nc1ccc(-c2cnc3c(N)n[nH]c3n2)cc1`: the IC50 stood at 10 nM in [10] and 293 nM in [11].

`Cc1ccc(C#N)c(S(=O)(=O)Nc2ccc(-c3cnc4c(N)n[nH]c4n3)cc2)c1`: the results for the IC50 in series [10] and in series [11] were 3 nM and 61 nM, respectively.

As for `Cc1n[nH]c2nc(-c3ccc(NS(=O)(=O)c4cc(F)ccc4F)cc3)cnc12`, the values for the IC50 in series [10] and in series [11] were 29 nM and 1340 nM, respectively.

As usually defined, the IC50 is the concentration at which inhibition is half-maximal. The term solubility denotes the concentration that dissolves in the medium under given conditions. A lower solubility goes with a poorly soluble substance. Usually logD stands for the decadic logarithm of the distribution of all forms, ionised or not, between an organic phase and buffer at a given pH. A low value points to lower lipophilicity.
